Read-outs that look alike come from different tables or passages of the source.
What was measured:
[1] = tested on: SCC2095 cells; experiment: Cell viability (MTT) assay, SCC2095; assay type: cell-based; conditions: 48 h, human oral cancer cells, read-out: IC50 of cytotoxicity SCC2095
Method: Human breast cancer MDA-MB-231 cells and gastric cancer SCM-1 cells were purchased from the American Type Culture Collection (Manasas, VA, USA). SCC2095 human oral cancer cells were kindly provided by Professor Susan R. Mallery (The Ohio State University).
To assess cell viability, cells were seeded in three replicates into 96-well plates at a density of 5×10^3/well for 24 h following incubation with compounds at the indicated concentrations. Then, cell viability was assessed with 3–(4,5-dimethylthiazol-2-yl)-2,5-diphenyltetrazolium bromide (MTT) solution (0.5 mg/mL) for 4h as described previously. After removing the medium, 200 µL of DMSO was added, and then the absorbance was measured at 570 nm using a plate reader (BMG LABTECH, Germany).

[2] = target: HDAC4 (Homo sapiens, UniProt P56524); experiment: HDAC inhibition assay, HDAC4
[3] = target: T1, HDAC7 (Homo sapiens, UniProt Q8WUI4); experiment: HDAC inhibition assay, HDAC7
T1 sequence (Q8WUI4 1-952): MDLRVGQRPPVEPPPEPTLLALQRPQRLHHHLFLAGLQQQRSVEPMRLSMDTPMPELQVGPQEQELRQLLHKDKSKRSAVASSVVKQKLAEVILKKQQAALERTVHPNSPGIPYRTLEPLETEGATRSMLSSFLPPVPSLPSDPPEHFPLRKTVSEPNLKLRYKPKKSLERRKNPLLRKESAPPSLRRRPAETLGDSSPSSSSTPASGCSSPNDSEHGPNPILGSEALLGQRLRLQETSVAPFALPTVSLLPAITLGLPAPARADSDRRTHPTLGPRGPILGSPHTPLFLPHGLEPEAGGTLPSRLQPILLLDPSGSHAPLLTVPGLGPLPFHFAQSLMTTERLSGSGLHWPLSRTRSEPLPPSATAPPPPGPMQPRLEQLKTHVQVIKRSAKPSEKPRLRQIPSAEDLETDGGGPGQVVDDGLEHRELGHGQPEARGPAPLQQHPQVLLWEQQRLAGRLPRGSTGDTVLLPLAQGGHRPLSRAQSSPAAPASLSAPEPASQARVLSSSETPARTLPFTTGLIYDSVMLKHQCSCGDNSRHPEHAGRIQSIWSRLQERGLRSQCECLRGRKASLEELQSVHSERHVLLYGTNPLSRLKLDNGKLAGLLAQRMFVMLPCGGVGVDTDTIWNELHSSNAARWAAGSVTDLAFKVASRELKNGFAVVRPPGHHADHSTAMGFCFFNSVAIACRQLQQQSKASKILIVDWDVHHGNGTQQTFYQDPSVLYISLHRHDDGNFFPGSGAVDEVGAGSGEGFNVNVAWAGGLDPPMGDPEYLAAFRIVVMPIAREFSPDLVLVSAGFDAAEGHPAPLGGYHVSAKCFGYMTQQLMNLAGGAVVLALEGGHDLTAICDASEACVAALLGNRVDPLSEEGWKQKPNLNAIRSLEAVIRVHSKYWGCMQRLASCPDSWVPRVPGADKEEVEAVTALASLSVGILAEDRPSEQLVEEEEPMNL

[4] = target: HDAC9 (Homo sapiens, UniProt Q9UKV0); experiment: HDAC inhibition assay, HDAC9
[5] = target: T2, HDAC6 (Homo sapiens, UniProt Q9UBN7); experiment: HDAC inhibition assay, HDAC6
T2 sequence (Q9UBN7 1-1215): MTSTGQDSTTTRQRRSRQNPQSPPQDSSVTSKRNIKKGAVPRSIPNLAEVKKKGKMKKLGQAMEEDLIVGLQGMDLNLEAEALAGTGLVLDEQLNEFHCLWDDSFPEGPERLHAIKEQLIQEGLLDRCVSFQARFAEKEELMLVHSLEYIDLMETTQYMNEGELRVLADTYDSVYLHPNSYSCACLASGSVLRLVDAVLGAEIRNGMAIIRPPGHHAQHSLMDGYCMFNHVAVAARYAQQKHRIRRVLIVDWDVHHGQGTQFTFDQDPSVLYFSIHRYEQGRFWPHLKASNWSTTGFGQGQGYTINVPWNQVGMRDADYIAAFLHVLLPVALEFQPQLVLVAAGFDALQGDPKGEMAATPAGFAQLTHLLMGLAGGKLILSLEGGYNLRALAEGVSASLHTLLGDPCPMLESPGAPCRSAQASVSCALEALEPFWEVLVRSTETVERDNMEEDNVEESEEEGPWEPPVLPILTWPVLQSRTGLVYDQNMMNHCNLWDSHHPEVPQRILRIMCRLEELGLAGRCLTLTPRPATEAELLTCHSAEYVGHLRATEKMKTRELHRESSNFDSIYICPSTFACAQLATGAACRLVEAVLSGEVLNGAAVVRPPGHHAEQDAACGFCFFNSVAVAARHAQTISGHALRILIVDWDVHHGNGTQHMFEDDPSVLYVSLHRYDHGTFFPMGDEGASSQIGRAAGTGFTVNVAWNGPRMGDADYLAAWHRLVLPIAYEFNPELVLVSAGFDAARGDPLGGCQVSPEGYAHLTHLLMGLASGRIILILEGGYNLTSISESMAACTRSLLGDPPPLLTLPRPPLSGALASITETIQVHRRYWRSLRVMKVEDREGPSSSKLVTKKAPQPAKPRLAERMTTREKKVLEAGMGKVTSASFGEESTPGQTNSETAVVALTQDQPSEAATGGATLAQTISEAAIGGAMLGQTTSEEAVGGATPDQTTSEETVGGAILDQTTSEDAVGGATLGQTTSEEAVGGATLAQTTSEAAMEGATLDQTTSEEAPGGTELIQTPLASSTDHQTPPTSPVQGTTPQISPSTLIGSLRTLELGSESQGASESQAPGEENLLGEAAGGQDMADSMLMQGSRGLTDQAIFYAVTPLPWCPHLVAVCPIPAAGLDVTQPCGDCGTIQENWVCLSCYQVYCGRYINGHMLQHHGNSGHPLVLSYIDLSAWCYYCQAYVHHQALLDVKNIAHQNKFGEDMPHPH

[6] = tested on: HeLa nuclear HDACs; experiment: HDAC inhibition assay, HeLa nuclear extract (mixture of class I HDACs 1, 2, and 3); conditions: read-out: IC50 HeLa nuclear HDACs, Boc-Lys-(AMC) substrate
[7] = tested on: SCC2095 cells; experiment: Western blotting of caspase- and HDAC-related proteins; assay type: cell-based, human; conditions: SCC2095, DNA damage biomarker, western blot
Method: The protein expression was performed as previously described. Proteins were resolved on 10% SDS-PAGE, then transferred to PVDF (Bio-Rad) membranes. After blocking with 5% skimmed milk in PBS containing 0.1% Tween 20, the membranes were probed with primary antibodies against interest target proteins at 4 °C overnight. The following primary antibodies were used: […], cleaved caspase 9, acetyl α-tubulin, Hsp90, Histone H2A.X, p38, p-^180Thr/^182Tyr p38, PPARγ, and p21 were purchased from Cell Signalling Technologies (Beverly, MA, USA); pro-caspase 8, Millipore; β-actin, Sigma-Aldrich (St. Louis, MO, USA). Then, the immunoblots were washed and exposed to HRP-conjugated secondary antibodies at room temperature for 1 h. The immunoblots were examined by enhanced chemiluminescence.

[8] = tested on: SCC2095 cells; experiment: ROS determination by flow cytometry (DCFH-DA probe); assay type: cell-based, human; conditions: SCC2095, 12 h or 24 h
Method: Cells (2 × 10^5) were treated with tested compounds in 6-well plates for 24 h or 48 h, then washed with ice-cold PBS twice and harvested with trypsin. Cells were incubated with 5 µL Annexin V- FITC/PI (BD Pharmingen, San Diego) for 15 min in the dark condition. Then, the cells were measured by BD FACSCanto flow cytometer (BD, Franklin Lakes, NJ). For ROS determination, DMSO or H2O2 or compound 7 g-treated cells were stained with the ROS probe (DCFH-DA; 5 µM) and detected the DCFH-DA fluorescence.

HDAC9, sequence (Q9UKV0 whole entry): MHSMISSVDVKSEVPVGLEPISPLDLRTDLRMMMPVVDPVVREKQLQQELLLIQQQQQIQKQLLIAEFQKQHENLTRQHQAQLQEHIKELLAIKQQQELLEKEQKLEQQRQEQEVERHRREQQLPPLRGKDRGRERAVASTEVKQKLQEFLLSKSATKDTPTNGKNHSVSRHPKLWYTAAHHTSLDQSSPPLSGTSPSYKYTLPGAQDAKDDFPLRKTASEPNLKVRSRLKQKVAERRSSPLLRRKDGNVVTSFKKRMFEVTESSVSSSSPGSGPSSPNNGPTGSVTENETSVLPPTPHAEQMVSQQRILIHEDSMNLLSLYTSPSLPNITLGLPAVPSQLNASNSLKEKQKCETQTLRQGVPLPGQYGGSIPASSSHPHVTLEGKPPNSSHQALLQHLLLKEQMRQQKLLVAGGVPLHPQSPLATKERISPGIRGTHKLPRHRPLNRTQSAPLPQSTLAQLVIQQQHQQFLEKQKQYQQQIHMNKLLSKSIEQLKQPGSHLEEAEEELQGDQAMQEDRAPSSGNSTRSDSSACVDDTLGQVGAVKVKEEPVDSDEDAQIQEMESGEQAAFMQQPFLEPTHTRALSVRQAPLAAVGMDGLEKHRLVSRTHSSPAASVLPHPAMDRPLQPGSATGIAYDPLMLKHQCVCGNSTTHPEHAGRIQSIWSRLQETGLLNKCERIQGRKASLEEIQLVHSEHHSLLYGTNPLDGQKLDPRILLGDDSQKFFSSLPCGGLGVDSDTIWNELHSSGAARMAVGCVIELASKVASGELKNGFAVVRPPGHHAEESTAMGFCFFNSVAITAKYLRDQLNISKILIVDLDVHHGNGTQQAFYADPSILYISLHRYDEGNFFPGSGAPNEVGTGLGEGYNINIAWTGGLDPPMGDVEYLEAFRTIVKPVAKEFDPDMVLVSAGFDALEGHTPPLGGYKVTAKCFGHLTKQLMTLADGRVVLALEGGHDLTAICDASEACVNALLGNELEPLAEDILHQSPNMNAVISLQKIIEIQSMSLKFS
HDAC4, sequence (P56524 whole entry): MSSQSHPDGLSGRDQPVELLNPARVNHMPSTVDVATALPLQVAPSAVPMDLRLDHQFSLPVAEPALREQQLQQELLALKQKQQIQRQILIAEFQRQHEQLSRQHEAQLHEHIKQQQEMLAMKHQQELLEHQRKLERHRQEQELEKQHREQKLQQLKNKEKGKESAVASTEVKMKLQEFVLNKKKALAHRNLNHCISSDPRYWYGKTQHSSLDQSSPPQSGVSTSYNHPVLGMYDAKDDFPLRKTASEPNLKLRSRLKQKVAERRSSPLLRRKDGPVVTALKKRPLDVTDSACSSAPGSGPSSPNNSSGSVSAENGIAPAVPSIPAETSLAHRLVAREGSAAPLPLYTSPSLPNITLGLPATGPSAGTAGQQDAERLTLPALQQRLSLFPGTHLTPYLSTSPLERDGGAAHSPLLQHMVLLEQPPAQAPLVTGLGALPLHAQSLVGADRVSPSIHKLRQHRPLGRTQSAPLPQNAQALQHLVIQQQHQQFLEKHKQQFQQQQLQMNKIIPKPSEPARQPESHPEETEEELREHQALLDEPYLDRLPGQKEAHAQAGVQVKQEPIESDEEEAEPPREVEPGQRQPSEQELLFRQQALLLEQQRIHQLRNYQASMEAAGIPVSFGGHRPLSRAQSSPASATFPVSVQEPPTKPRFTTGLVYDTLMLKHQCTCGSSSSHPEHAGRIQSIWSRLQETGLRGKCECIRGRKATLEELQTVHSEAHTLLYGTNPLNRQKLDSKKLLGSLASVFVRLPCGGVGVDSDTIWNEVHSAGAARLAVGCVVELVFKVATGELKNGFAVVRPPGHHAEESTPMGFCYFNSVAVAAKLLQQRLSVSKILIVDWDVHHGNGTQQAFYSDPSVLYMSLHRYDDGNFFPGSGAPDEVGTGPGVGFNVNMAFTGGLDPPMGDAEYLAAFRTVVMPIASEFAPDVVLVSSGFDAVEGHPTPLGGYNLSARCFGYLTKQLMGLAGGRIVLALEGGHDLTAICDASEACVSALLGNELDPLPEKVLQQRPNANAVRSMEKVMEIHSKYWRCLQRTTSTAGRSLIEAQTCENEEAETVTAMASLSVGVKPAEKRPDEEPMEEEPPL

Row | SMILES | IC50 [2] | IC50 [3] | IC50 [4] | IC50 [5] | IC50 [6] | HDAC6 inhibitory activity, fold less potent than LH4f ([5]; versus LH4f) | IC50 ([1]; Homo sapiens) | phosphorylation of Histone H2A.X [7] | ROS generation [8] | IC50 [1]
1 | CC(=NO)c1ccc2c(c1)N(Cc1ccc(C(=O)NO)c(-c3ccccc3)c1)c1ccccc1S2 [Compound 7f, N-Hydroxy-4-{2-[1-(hydroxyimino)ethyl]-10H-phenothiazin-10-yl}methyl-2-phenylbenzamide] | 580 ± 70 nM | 410 ± 20 nM | 320 ± 70 nM | 1.61 ± 0.09 µM | > 40 µM |  | 4.6 µM |  |  | 
2 | O=C(NO)c1ccc(CN2c3ccccc3Sc3ccc(Cl)cc32)cc1-c1ccccc1 [Compound 7b, N-Hydroxy-4-[(2-chloro-10H-phenothiazin-10-yl)methyl]-2-phenylbenzamide] | 280 ± 30 nM | 230 ± 20 nM | 200 ± 10 nM | 2.12 ± 0.37 µM | > 40 µM |  | 5 µM |  |  | 
3 | O=C(NO)c1ccc(CN2CCCc3ccccc3C2)cc1-c1ccccc1 [Compound 7j, N-Hydroxy-4-[(1,3,4,5-tetrahydro-2H-benzo[c]azepin-2-yl)methyl]-2-phenylbenzamide] | 910 ± 70 nM | 840 ± 30 nM | 950 ± 50 nM | 18.22 ± 0.02 µM | > 40 µM |  | > 10 µM |  |  | 
4 | O=C(NCC1(c2nc(-c3ccccc3)cs2)CCOCC1)c1cccc(-c2noc(C(F)(F)F)n2)c1 [TMP269, reference compound] |  |  |  |  |  |  | 18.1 ± 3.8 µM | increased | increased | 
5 | COc1cc([C@@H]2c3cc4c(cc3[C@@H](O[C@@H]3O[C@@H]5CO[C@@H](C)O[C@H]5[C@H](O)[C@H]3O)[C@H]3COC(=O)[C@H]23)OCO4)cc(OC)c1O [Etoposide, reference compound] |  |  |  |  |  |  | 3.3 ± 0.5 µM |  |  | 2.3 µM
6 | COc1ccc2c(c1)N(Cc1ccc(C(=O)NO)c(-c3ccccc3)c1)c1ccccc1S2 [Compound 7d, N-Hydroxy-4-[(2-methoxy-10H-phenothiazin-10-yl)methyl]-2-phenylbenzamide] | 800 ± 10 nM | 710 ± 120 nM | 640 ± 80 nM | 3.68 ± 0.41 µM | > 40 µM |  | 3.2 µM |  |  | 
7 | O=C(NO)c1ccc(CN2c3ccccc3Sc3ccccc32)cc1-c1ccccc1 [Compound 7a, N-Hydroxy-4-[(10H-phenothiazin-10-yl)methyl]-2-phenylbenzamide] | 480 ± 40 nM | 710 ± 10 nM | 420 ± 60 nM | 3.2 ± 0.77 µM | > 40 µM |  | 3.9 µM |  |  | 
8 | O=C(NO)c1ccc(CN2c3ccccc3Sc3ccc(C(F)(F)F)cc32)cc1-c1ccccc1 [Compound 7c, N-Hydroxy-4-{[2-(trifluoromethyl)-10H-phenothiazin-10-yl]methyl}-2-phenylbenzamide] | 280 ± 40 nM | 230 ± 50 nM | 270 ± 20 nM | 3.19 ± 0.11 µM | > 40 µM |  | 6 µM |  |  | 
9 | NC(=O)c1ccc2c(c1)N(Cc1ccc(C(=O)NO)c(-c3ccccc3)c1)c1ccccc1S2 [Compound 7h] | 200 ± 50 nM | 160 ± 10 nM | 110 ± 10 nM | 0.75 ± 0.06 µM | > 40 µM | 150 fold | 3.6 µM |  |  | 
10 | O=C(NO)c1ccc(CNC23CC4CC(CC(C4)C2)C3)cc1-c1ccccc1 [Compound 7i, N-Hydroxy-4-[(adamantan-1-ylamino)methyl]-2-phenylbenzamide] | 18700 ± 2160 nM | 12900 ± 2140 nM | 23700 ± 4140 nM | > 40 µM | > 40 µM |  | > 10 µM |  |  | 

Continued, in another order:

Row | IC50 [2] | IC50 [3] | IC50 [4] | IC50 [5] | IC50 [6] | HDAC6 inhibitory activity, fold less potent than LH4f ([5]; versus LH4f) | SMILES | IC50 ([1]; Homo sapiens) | phosphorylation of Histone H2A.X [7] | ROS generation [8] | IC50 [1]
11 | 6280 ± 130 nM | 4030 ± 160 nM | 5340 ± 400 nM | 4.03 ± 0.25 µM | > 40 µM |  | COc1ccc(-c2cc(CN3c4ccccc4Sc4ccc(C#N)cc43)ccc2C(=O)NO)cc1 [Compound 19b, N-Hydroxy-4-[(2-cyano-10H-phenothiazin-10-yl)methyl]-2–(4-methoxyphenyl)benzamide] | 1.8 µM |  |  | 
12 | > 40000 nM | 17900 ± 920 nM | 18600 ± 960 nM | 7.6 ± 0.36 µM | > 40 µM |  | COc1cc(-c2cc(CN3c4ccccc4Sc4ccc(C#N)cc43)ccc2C(=O)NO)cc(OC)c1OC [Compound 19a, N-Hydroxy-4-[(2-cyano-10H-phenothiazin-10-yl)methyl]-2–(3,4,5-trimethoxyphenyl)benzamide] | 7.6 µM |  |  | 
13 | 1000 ± 30 nM | 540 ± 60 nM | 720 ± 30 nM | 4.22 ± 0.18 µM | > 40 µM |  | N#Cc1ccc2c(c1)N(Cc1ccc(C(=O)NO)c(-c3ccc(F)cc3)c1)c1ccccc1S2 [Compound 19c, N-Hydroxy-4-[(2-cyano-10H-phenothiazin-10-yl)methyl]-2–(4-fluorophenyl)benzamide] | 2.6 µM |  |  | 
